Results taken from PMC9189845, “Structure–Activity Relationships of 8-Hydroxyquinoline-Derived Mannich Bases with Tertiary Amines Targeting Multidrug-Resistant Cancer” (Journal of Medicinal Chemistry, 2022).
Like-named read-outs stand apart in the source and are kept apart here.

Assays:
MES-SA cells = assay: PrestoBlue viability assay, MES-SA cells; conditions: for pIC50 value MES-SA: MES-SA cells, without TQ
MES-SA/Dx5 cells = assay: PrestoBlue viability assay, MES-SA/Dx5 cells (MDR, P-gp positive); conditions: for SR_TQ: selectivity ratio MES-SA vs MES-SA/Dx5, with TQ; for SR: selectivity ratio MES-SA vs MES-SA/Dx5, without TQ; for pIC50 value MES-SA/Dx5: MES-SA/Dx5 cells, without TQ
[1] = Homo sapiens, MES-SA, 72 h, read-out: IC50 / μM MES-SA, absence of TQ, 72 h incubation
[2] = Homo sapiens, MES-SA, read-out: pIC50 value MES-SA+TQ, MES-SA cells, with TQ (converted)
[3] = Homo sapiens, MES-SA, read-out: pIC50 value MES-SA, MES-SA cells, without TQ (converted)
[4] = Homo sapiens, MES-SA/Dx5, 72 h, read-out: IC50 / μM MES-SA/Dx5, absence of TQ, 72 h incubation
[5] = Homo sapiens, MES-SA/Dx5, read-out: pIC50 value MES-SA/Dx5 + TQ, MES-SA/Dx5 cells, with TQ (converted)
[6] = Homo sapiens, MES-SA/Dx5, read-out: pIC50 value MES-SA/Dx5, MES-SA/Dx5 cells, without TQ (converted)
[7] = read-out: IC50 / μM MES-SA, absence of TQ, 72 h incubation
[8] = read-out: IC50 / μM MES-SA/Dx5, absence of TQ, 72 h incubation

Oc1c(C(c2ccncc2)N2CCOCC2)ccc2cccnc12 (centres unmarked) [Compound 104]
IC50 (MES-SA cells; [1]): 15.2 ± 2.74 µM | IC50 (MES-SA cells; [2]): 21.9 µM | IC50 (MES-SA cells; [3]): 14.8 µM | IC50 (MES-SA/Dx5 cells; [4]): 7.14 ± 1.26 µM | IC50 (MES-SA/Dx5 cells; [5]): 15.1 µM | IC50 (MES-SA/Dx5 cells; [6]): 7.08 µM | SR_TQ (MES-SA/Dx5 cells): 1.45 | SR (MES-SA/Dx5 cells): 2.12

Oc1c(C(c2ccccc2Cl)N2CCOCC2)ccc2cccnc12 (centres unmarked) [Compound 105]
pIC50 value MES-SA (MES-SA cells): 4.73 | IC50 (MES-SA cells; [7]): 18.45 ± 0.14 µM | pIC50 value MES-SA/Dx5 (MES-SA/Dx5 cells): 4.79 | IC50 (MES-SA/Dx5 cells; [8]): 16.4 ± 1.02 µM | SR (MES-SA/Dx5 cells): 1.13

Oc1c(C(c2ccc(F)cc2)N2CCOCC2)ccc2cccnc12 (centres unmarked) [Compound 106]
pIC50 value MES-SA (MES-SA cells): 4.51 | IC50 (MES-SA cells; [7]): 33.4 ± 13.2 µM | pIC50 value MES-SA/Dx5 (MES-SA/Dx5 cells): 4.86 | IC50 (MES-SA/Dx5 cells; [8]): 14.9 ± 6.17 µM | SR_TQ (MES-SA/Dx5 cells): 1.15 | SR (MES-SA/Dx5 cells): 2.24

COc1ccc(C(c2ccc3cccnc3c2O)N2CCOCC2)cc1 (centres unmarked) [Compound 107]
pIC50 value MES-SA (MES-SA cells): 4.69 | IC50 (MES-SA cells; [7]): 20.3 ± 1.7 µM | pIC50 value MES-SA/Dx5 (MES-SA/Dx5 cells): 4.81 | IC50 (MES-SA/Dx5 cells; [8]): 15.8 ± 2.97 µM | SR (MES-SA/Dx5 cells): 1.29

Oc1c(C(c2cccnc2)N2CCOCC2)cc(Cl)c2cccnc12 (centres unmarked) [Compound 109]
IC50 (MES-SA cells; [1]): 51 ± 2.48 µM | IC50 (MES-SA cells; [3]): 51.3 µM | IC50 (MES-SA/Dx5 cells; [4]): 32.9 ± 7.06 µM | IC50 (MES-SA/Dx5 cells; [6]): 32.4 µM | SR (MES-SA/Dx5 cells): 1.55

Oc1c(C(c2cccs2)N2CCOCC2)cc(Cl)c2cccnc12 (centres unmarked) [Compound 110]
IC50 (MES-SA cells; [1]): 7.97 ± 1.01 µM | IC50 (MES-SA cells; [3]): 7.94 µM | IC50 (MES-SA/Dx5 cells; [4]): 14 ± 0.42 µM | IC50 (MES-SA/Dx5 cells; [6]): 13.8 µM | SR (MES-SA/Dx5 cells): 0.57

CN1CCN(C(c2cccnc2)c2ccc3cccnc3c2O)CC1 (centres unmarked) [Compound 111]
IC50 (MES-SA cells; [1]): 54.8 ± 3.66 µM | IC50 (MES-SA cells; [3]): 55 µM | IC50 (MES-SA/Dx5 cells; [4]): 35.9 ± 4.93 µM | IC50 (MES-SA/Dx5 cells; [6]): 35.5 µM | SR (MES-SA/Dx5 cells): 1.53

CN1CCN(C(c2ccncc2)c2ccc3cccnc3c2O)CC1 (centres unmarked) [Compound 112]
IC50 (MES-SA cells; [1]): 22.1 ± 2.7 µM | IC50 (MES-SA cells; [2]): 32.4 µM | IC50 (MES-SA cells; [3]): 21.9 µM | IC50 (MES-SA/Dx5 cells; [4]): 11 ± 2.12 µM | IC50 (MES-SA/Dx5 cells; [5]): 20.4 µM | IC50 (MES-SA/Dx5 cells; [6]): 10.7 µM | SR_TQ (MES-SA/Dx5 cells): 1.58 | SR (MES-SA/Dx5 cells): 2.02

CN1CCN(C(c2cccs2)c2ccc3cccnc3c2O)CC1 (centres unmarked) [Compound 113]
IC50 (MES-SA cells; [1]): 12.8 ± 1.72 µM | IC50 (MES-SA cells; [3]): 12.6 µM | IC50 (MES-SA/Dx5 cells; [4]): 16.79 ± 0.08 µM | IC50 (MES-SA/Dx5 cells; [6]): 16.6 µM | SR (MES-SA/Dx5 cells): 0.76

CCN1CCN(C(c2cccnc2)c2ccc3cccnc3c2O)CC1 (centres unmarked) [Compound 115]
IC50 (MES-SA cells; [1]): 20.6 ± 1.85 µM | IC50 (MES-SA cells; [2]): 24 µM | IC50 (MES-SA cells; [3]): 20.4 µM | IC50 (MES-SA/Dx5 cells; [4]): 10.3 ± 3.54 µM | IC50 (MES-SA/Dx5 cells; [5]): 22.9 µM | IC50 (MES-SA/Dx5 cells; [6]): 9.77 µM | SR_TQ (MES-SA/Dx5 cells): 1.05 | SR (MES-SA/Dx5 cells): 1.99

CCN1CCN(C(c2cccs2)c2ccc3cccnc3c2O)CC1 (centres unmarked) [Compound 116]
IC50 (MES-SA cells; [1]): 9.06 ± 0.23 µM | IC50 (MES-SA cells; [3]): 9.12 µM | IC50 (MES-SA/Dx5 cells; [4]): 14.2 ± 1.36 µM | IC50 (MES-SA/Dx5 cells; [6]): 14.1 µM | SR (MES-SA/Dx5 cells): 0.64

CCN1CCN(C(c2ccccn2)c2cc(Cl)c3cccnc3c2O)CC1 (centres unmarked) [Compound 117]
IC50 (MES-SA cells; [1]): 28.3 ± 2.32 µM | IC50 (MES-SA cells; [3]): 28.2 µM | IC50 (MES-SA/Dx5 cells; [4]): 24.4 ± 3.58 µM | IC50 (MES-SA/Dx5 cells; [6]): 24 µM | SR (MES-SA/Dx5 cells): 1.16

CCN1CCN(C(c2cccnc2)c2cc(Cl)c3cccnc3c2O)CC1 (centres unmarked) [Compound 118]
IC50 (MES-SA cells; [1]): 21.4 ± 0.84 µM | IC50 (MES-SA cells; [3]): 21.4 µM | IC50 (MES-SA/Dx5 cells; [4]): 23.1 ± 4.67 µM | IC50 (MES-SA/Dx5 cells; [6]): 22.4 µM | SR (MES-SA/Dx5 cells): 0.92

OCCN1CCN(C(c2ccccc2)c2ccc3cccnc3c2O)CC1 (centres unmarked) [Compound 119]
pIC50 value MES-SA (MES-SA cells): 4.69 | IC50 (MES-SA cells; [7]): 20.7 ± 0.97 µM | pIC50 value MES-SA/Dx5 (MES-SA/Dx5 cells): 4.88 | IC50 (MES-SA/Dx5 cells; [8]): 13.5 ± 2.55 µM | SR_TQ (MES-SA/Dx5 cells): 1.7 | SR (MES-SA/Dx5 cells): 1.53

Oc1c(C(c2ccccn2)N2CCN(c3ccccn3)CC2)ccc2cccnc12 (centres unmarked) [Compound 121]
pIC50 value MES-SA (MES-SA cells): 4.39 | IC50 (MES-SA cells; [7]): 40.9 ± 2.86 µM | pIC50 value MES-SA/Dx5 (MES-SA/Dx5 cells): 4.65 | IC50 (MES-SA/Dx5 cells; [8]): 22.6 ± 2.85 µM | SR (MES-SA/Dx5 cells): 1.81
